Laboratory results: patent US20140106440A1, “ENHANCED ENZYMATIC CO2 CAPTURE TECHNIQUES ACCORDING TO SOLUTION PKA, TEMPERATURE AND/OR ENZYME CHARACTER” (CO2 SOLUTIONS INC., priority 2011, published 2014)
“And” between values parts separate entries of the source, which are not always exact repeats. Identical values can stand only once. Like-named read-outs stand apart in the source and are kept apart here.

Assays:
[1] = Second-order kinetic rate constant of the reaction between alkanolamine and CO2 (no enzyme); type: physicochemical
[2] = cited from earlier work
[3] = forward reaction with CO2; 2 kmol/m^3 MDEA solution at 298 K; cited from earlier work

CCN(CC)CCO [DEMEA, diethylethanolamine]
k2, second-order kinetic rate constant of the reaction between amine and CO2 [1]: 33.0 m^3 kmol^−1 s^−1 and 35.5 m^3 kmol^−1 s^−1 and 33.1 m^3 kmol^−1 s^−1

CN(C)CCO [DMMEA, dimethylethanolamine]
pKa ([2]; Table 3): 9.2 | pKa ([2]; Table 4): 9.2 | pKa ([2]; Table 14): 9.22 | k2, second-order kinetic rate constant of the reaction between amine and CO2 ([1]; amine concentration 1.0 kmol m^−3): 19.5 m^3 kmol^−1 s^−1 | k2, second-order kinetic rate constant of the reaction between amine and CO2 ([1]; amine concentration 2.0 kmol m^−3): 18.8 m^3 kmol^−1 s^−1

O [H2O, water]
1st order rate constant [3]: 0.026 s⁻¹

O [OH^−, hydroxide]
1st order rate constant [3]: 23.8 s⁻¹ | 2nd order rate constant [3]: 8.35 m^3mol^−1s^−1

CC(O)CN(CC(C)O)CC(C)O (stereo not shown) [TIPA, tri-isopropanolamine]
k2, second-order kinetic rate constant of the reaction between amine and CO2 [1]: 1.02 m^3 kmol^−1 s^−1 and 0.79 m^3 kmol^−1 s^−1
